Measured values published in patent US20250019387A1 (Frontier Medicines Corporation, priority 0001, published 2025).

biological target: KRAS G12C and cRAF (Ras-binding domain) interaction (Homo sapiens (Human), UniProt P01116, C118S/C51S/C80L/G12C); experiment: Inhibition of KRAS G12C and cRAF binding (AlphaScreen); details: GMPPNP-loaded KRAS G12C, 19-20 hours incubation with compound; read-out: IC50 (Inhibition of KRAS G12C and cRAF Binding)
Outline: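 Compounds (DMSO) preincubated 19-20 h at room temperature, then RBD with streptavidin donor and glutathione acceptor beads added in 25 mM Hepes pH 7.4, 150 mM NaCl, 5 mM MgCl2, 0.01% Triton X-100, 2% DMSO for 60-90 min. Emission 570 nm (excitation 680 nm); IC50 by 4-parameter fit. Counter-screen used biotin-AviTag-GST instead of RBD.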

Chain of KRAS G12C and cRAF (Ras-binding domain) interaction (P01116 other isoform, or with tags, fused parts or gaps G12C/C51S/C80L/C118S): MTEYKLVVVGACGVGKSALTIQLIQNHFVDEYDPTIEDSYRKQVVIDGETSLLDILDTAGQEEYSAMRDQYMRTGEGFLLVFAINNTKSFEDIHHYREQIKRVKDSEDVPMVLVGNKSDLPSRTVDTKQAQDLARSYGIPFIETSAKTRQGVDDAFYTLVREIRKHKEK

| SMILES | IC50 |
| --- | --- |
| Cc1c(F)ccc2c(-c3ncc4c(N(C)[C@@H]5CCN(C(=O)/C=C/[C@H]6CCN6C)C5)nc(OC[C@@]56CCCN5C[C@H](F)C6)nc4c3F)cccc12 [Example 282, (E)-1-((R)-3-((8-fluoro-7-(6-fluoro-5-methylnaphthalen-1-yl)-2-(((2R,7aS)-2-fluorotetrahydro-1H-pyrrolizin-7a(5H)-yl)methoxy)pyrido[4,3-d]pyrimidin-4-yl)(methyl)amino)pyrrolidin-1-yl)-3-((R)-1-methylazetidin-2-yl)prop-2-en-1-one] | 100 to 500 nM |
| CN1CCCC1/C=C/C(=O)N1CC[C@@H](N(C)c2nc(OC[C@@]34CCCN3C[C@H](F)C4)nc3c(F)c(-c4cccc5ccc(F)c(Cl)c45)ncc23)C1 (stereo partly drawn) [Example 124, (E)-1-((R)-3-((7-(8-chloro-7-fluoronaphthalen-1-yl)-8-fluoro-2-(((2R,7aS)-2-fluorotetrahydro-1H-pyrrolizin-7a(5H)-yl)methoxy)pyrido[4,3-d]pyrimidin-4-yl)(methyl)amino)pyrrolidin-1-yl)-3-(1-methylpyrrolidin-2-yl)prop-2-en-1-one] | 10 to 100 nM |
| CC(C)N1CC[C@@H]1/C=C/C(=O)N1CC[C@@H](N(C)c2nc(OC[C@@]34CCCN3C[C@H](F)C4)nc3c(F)c(-c4cccc5ccc(F)c(Cl)c45)ncc23)C1 [Example 211, (E)-1-((R)-3-((7-(8-chloro-7-fluoronaphthalen-1-yl)-8-fluoro-2-(((2R,7aS)-2-fluorotetrahydro-1H-pyrrolizin-7a(5H)-yl)methoxy)pyrido[4,3-d]pyrimidin-4-yl)(methyl)amino)pyrrolidin-1-yl)-3-((R)-1-isopropylazetidin-2-yl)prop-2-en-1-one] | 10 to 100 nM |
| COCCN1CC[C@@H]1/C=C/C(=O)N1CC[C@@H](N(C)c2nc(OC[C@@]34CCCN3C[C@H](F)C4)nc3c(F)c(-c4cccc5cccc(Cl)c45)ncc23)C1 [Example 234, (E)-1-((R)-3-((7-(8-chloronaphthalen-1-yl)-8-fluoro-2-(((2R,7aS)-2-fluorotetrahydro-1H-pyrrolizin-7a(5H)-yl)methoxy)pyrido[4,3-d]pyrimidin-4-yl)(methyl)amino)pyrrolidin-1-yl)-3-((R)-1-(2-methoxyethyl)azetidin-2-yl)prop-2-en-1-one] | 10 to 100 nM |
| Cc1ncc(F)c(/C=C/C(=O)N2CC[C@@H](N(C)c3nc(OCC45CCCN4CCC5)nc4c(F)c(-c5cccc6cccc(Cl)c56)ncc34)C2)n1 [Example 249, (R,E)-1-(3-((7-(8-chloronaphthalen-1-yl)-8-fluoro-2-((tetrahydro-1H-pyrrolizin-7a(5H)-yl)methoxy)pyrido[4,3-d]pyrimidin-4-yl)(methyl)amino)pyrrolidin-1-yl)-3-(5-fluoro-2-methylpyrimidin-4-yl)prop-2-en-1-one] | 10 to 100 nM |
| C#Cc1c(F)ccc2cccc(-c3ncc4c(N(C)[C@@H]5CCN(C(=O)/C=C/CN6C7COCC6C7)C5)nc(OC[C@@]56CCCN5C[C@H](F)C6)nc4c3F)c12 [Example 293, (E)-4-(3-oxa-6-azabicyclo[3.1.1]heptan-6-yl)-1-((R)-3-((7-(8-ethynyl-7-fluoronaphthalen-1-yl)-8-fluoro-2-(((2R,7aS)-2-fluorotetrahydro-1H-pyrrolizin-7a(5H)-yl)methoxy)pyrido[4,3-d]pyrimidin-4-yl)(methyl)amino)pyrrolidin-1-yl)but-2-en-1-one] | < 10 nM |
| C#Cc1c(F)ccc2cccc(-c3ncc4c(N(C)[C@@H]5CCN(C(=O)C=C)C5)nc(OCC56CCCN5CCC6)nc4c3F)c12 [Example 303, (R)-1-(3-((7-(8-ethynyl-7-fluoronaphthalen-1-yl)-8-fluoro-2-((tetrahydro-1H-pyrrolizin-7a(5H)-yl)methoxy)pyrido[4,3-d]pyrimidin-4-yl)(methyl)amino)pyrrolidin-1-yl)prop-2-en-1-one] | < 10 nM |
| COC(=O)/C=C/C(=O)NCCN(C)c1nc(OC[C@@H]2CCCN2C)nc2c1CCN(c1cccc3cccc(Cl)c13)C2 [Example 22, methyl(S,E)-4-((2-((7-(8-chloronaphthalen-1-yl)-2-((1-methylpyrrolidin-2-yl)methoxy)-5,6,7,8-tetrahydropyrido[3,4-d]pyrimidin-4-yl)(methyl)amino)ethyl)amino)-4-oxobut-2-enoate] | 100 to 500 nM |
| CN(CCS(=O)(=O)/C=C/CN1CC(F)C1)c1nc(OC[C@@H]2CCCN2C)nc2c1CCN(c1cccc3cccc(Cl)c13)C2 [Example 53, 7-(8-chloro-1-naphthyl)-N-[2-[(E)-3-(3-fluoroazetidin-1-yl)prop-1-enyl]sulfonylethyl]-N-methyl-2-[[(2S)-1-methylpyrrolidin-2-yl]methoxy]-6,8-dihydro-5H-pyrido[3,4-d]pyrimidin-4-amine] | 100 to 500 nM |

Further lines, results first:

| IC50 | SMILES |
| --- | --- |
| 10 to 100 nM | COC(=O)/C=C/C(=O)N1C[C@H](N(C)c2nc(OCC34CCCN3CCC4)nc3c2CCN(c2cccc4cccc(Cl)c24)C3)C[C@@H]1C [Example 20, methyl(E)-4-((2S,4R)-4-((7-(8-chloronaphthalen-1-yl)-2-((tetrahydro-1H-pyrrolizin-7a(5H)-yl)methoxy)-5,6,7,8-tetrahydropyrido[3,4-d]pyrimidin-4-yl)(methyl)amino)-2-methylpyrrolidin-1-yl)-4-oxobut-2-enoate] |
| 100 to 500 nM | CN1CCC[C@H]1COc1nc2c(c(N(C)[C@@H]3CCN(C#N)C3)n1)CCN(c1cccc3cccc(Cl)c13)C2 [Example 33, (R)-3-((7-(8-chloronaphthalen-1-yl)-2-(((S)-1-methylpyrrolidin-2-yl)methoxy)-5,6,7,8-tetrahydropyrido[3,4-d]pyrimidin-4-yl)(methyl)amino)pyrrolidine-1-carbonitrile] |
| 10 to 100 nM | C=CS(=O)(=O)CCN(C)c1nc(OC[C@@H]2CCCN2C)nc2c1CCN(c1cccc3cccc(Cl)c13)C2 [Example 47, (S)-7-(8-chloronaphthalen-1-yl)-N-methyl-2-((1-methylpyrrolidin-2-yl)methoxy)-N-(2-(vinylsulfonyl)ethyl)-5,6,7,8-tetrahydropyrido[3,4-d]pyrimidin-4-amine] |
| > 500 nM | CN(c1nc(OC[C@@]23CCCN2C[C@H](F)C3)nc2c1CCN(c1cccc3cccc(Cl)c13)C2)[C@@H]1CCN(C(=O)/C=C/c2cn(C)cn2)C1 [Example 110, (E)-1-((R)-3-((7-(8-chloronaphthalen-1-yl)-2-(((2R,7aS)-2-fluorohexahydro-1H-pyrrolizin-7a-yl)methoxy)-5,6,7,8-tetrahydropyrido[3,4-d]pyrimidin-4-yl)(methyl)amino)pyrrolidin-1-yl)-3-(1-methyl-1H-imidazol-4-yl)prop-2-en-1-one] |

same assay, conditions: additional exemplary compounds; KRAS G12C and cRAF binding; read-out: RAF1 RBD IC50

| SMILES | IC50 |
| --- | --- |
| Cc1nccc(/C=C/C(=O)N2C[C@@H]3CN(c4nc(OC[C@@]56CCCN5C[C@H](F)C6)nc5c(F)c(-c6cccc7cccc(Cl)c67)ncc45)C[C@@H]3C2)n1 | > 500 nM |
| Cc1nccc(/C=C/C(=O)N2CCCN(c3nc(OC[C@@]45CCCN4C[C@H](F)C5)nc4c(F)c(-c5cccc6cccc(Cl)c56)ncc34)CC2)n1 | > 500 nM |
| CN(c1nc(OCC23CCCN2CCC3)nc2c(F)c(-c3cccc4ccc(F)c(Cl)c34)ncc12)[C@@H]1CCN(C#N)C1 | 10 to 100 nM |
| CN(C)C/C=C/S(=O)(=O)CCN(C)c1nc(OC[C@@H]2CCCN2C)nc2c(F)c(-c3cccc4cccc(Cl)c34)ncc12 | 10 to 100 nM |
| C=CC(=O)N1CCC[C@@H](N(C)c2nc(OC[C@@]34CCCN3C[C@H](F)C4)nc3c(F)c(-c4cccc5cccc(Cl)c45)ncc23)C1 | > 500 nM |
| N#CN1CC[C@H]2[C@H]1CCN2c1nc(OC[C@@]23CCCN2C[C@H](F)C3)nc2c(F)c(-c3cccc4cccc(Cl)c34)ncc12 | 100 to 500 nM |
| CN(CCS(=O)(=O)/C=C/CN1CCC(F)(F)C1)c1nc(OC[C@@H]2CCCN2C)nc2c(F)c(-c3cccc4cccc(Cl)c34)ncc12 | > 500 nM |
| C=CC(=O)N1CC[C@H](C)[C@H](Nc2nc(OC[C@@]34CCCN3C[C@H](F)C4)nc3c(F)c(-c4cccc5cccc(Cl)c45)ncc23)C1 | > 500 nM |
| CC(C)c1noc(/C=C/C(=O)N2C3CC2CN(c2nc(OC[C@@]45CCCN4C[C@H](F)C5)nc4c(F)c(-c5cccc6cccc(Cl)c56)ncc24)C3)n1 | > 500 nM |
| COCCN(C)C/C=C/S(=O)(=O)CCN(C)c1nc(OCC23CCCN2CCC3)nc2c(F)c(-c3cccc4cccc(Cl)c34)ncc12 | 10 to 100 nM |
| C=CC(=O)N1CC2CC(Nc3nc(OC[C@@]45CCCN4C[C@H](F)C5)nc4c(F)c(-c5cccc6cccc(Cl)c56)ncc34)C1C2 (some centres unmarked) | > 500 nM |

Continued, values first:

| IC50 | SMILES |
| --- | --- |
| > 500 nM | CN(CC1(C)CN(C#N)C1)c1nc(OC[C@@H]2CCCN2C)nc2c1CCN(c1cccc3cccc(Cl)c13)C2 |
| 100 to 500 nM | C=CC(=O)N1CC[C@@H](N(C)c2nc(OCC34CCCN3CCC4)nc3c(F)c(-c4cccc5cccc(Cl)c45)ncc23)C1 |
| 100 to 500 nM | C=CC(=O)N1CC[C@@H](N(C)c2nc(OC[C@@]34CCCN3C[C@H](F)C4)nc3c2CCN(c2cc(O)cc4ccccc24)C3)C1 |
| > 500 nM | CC(C)C/C=C/S(=O)(=O)CCN(C)c1nc(OCC23CCCN2CCC3)nc2c1CCN(c1cccc3cccc(Cl)c13)C2 |
| > 500 nM | CCOC/C=C/S(=O)(=O)CCN(C)c1nc(OCC23CCCN2CCC3)nc2c1CCN(c1cccc3cccc(Cl)c13)C2 |
| > 500 nM | C=CC(=O)N1CC[C@@H](O)[C@H](N(C)c2nc(OC[C@@]34CCCN3C[C@H](F)C4)nc3c(F)c(-c4cccc5cccc(Cl)c45)ncc23)C1 |
| > 500 nM | CN(C)C(=O)/C=C/C(=O)N1CC(CN(C)c2nc(OCC34CCCN3CCC4)nc3c2CCN(c2cccc4cccc(Cl)c24)C3)C1 |
| > 500 nM | C=CC(=O)N1C[C@H](N(C)c2nc(OCC34CCCN3CCC4)nc3c2CCN(c2cccc4cccc(Cl)c24)C3)[C@H]1C |
